Test results from patent publication US11555820B2, “Nanohoop compounds for use in biotechnology and methods of making and using the same” (University of Oregon, priority 2017, dated 2023).

Assays:
[1] = all-para [n]CPP, n≤7; cited from earlier work
[2] = Photophysical properties of meta-substituted nanohoops (absorption, emission, extinction coefficient, quantum yield); type: physicochemical; details: for CPP ε × Φ (brightness): all-para [n]CPP with the same number of rings; for εAmax × ΦAmax (brightness) / εH→L: [n]mCPP; for Emission / Max Abs / ΦAmax (fluorescence quantum yield) / εAmax: dichloromethane; for ΦAmax (fluorescence quantum yield): room temperature; for εAmax: extinction coefficient at the absorbance maximum; for εH→L: extinction coefficient of the HOMO→LUMO transition
Experimental: In the following examples, all glassware was flame dried and cooled under an inert atmosphere of nitrogen unless otherwise noted. Moisture sensitive reactions were carried out under nitrogen atmosphere using Schlenk and standard syringe/septa techniques. Tetrahydrofuran, dichloromethane, dimethylformamide and 1,4-dioxane were dried by filtration through alumina according to the methods describes by Grubbs. Silica column chromatography was conducted with Zeochem Zeoprep 60 Eco 40-63 μm silica gel. Automated flash chromatography was performed using a Biotage Isolera One. Recycling gel permeation chromatography (GPC) was performed using a Japan Analytical Industry LC-9101 preparative HPLC with JAIGEL-1H/JAIGEL-2H columns in series using CHCl3. Thin Layer Chromatography (TLC) was performed using Sorbent Technologies Silica Gel XHT TLC plates. Developed plates were visualized using UV light at wavelengths of 254 and 365 nm. ^1H NMR spectra were recorded at 500 MHz or 600 MHz on a Bruker Advance-II-HD NMR spectrometer. ^13C NMR spectra were recorded 150 MHz on a Bruker Advance-III-HD NMR spectrometer. All ^1H NMR spectra were taken in CDCl3 (referenced to TMS, δ 0.00 ppm) or DMSO-d6 (referenced to residual DMSO, δ 2.50 ppm). All ^13C NMR spectra were taken in CDCl3 (referenced to chloroform, δ 77.16 ppm) or DMSO-d6 (referenced to DMSO, δ 39.52 ppm). Absorbance and fluorescence spectra were obtained in a 1 cm Quartz cuvette with dichloromethane using an Agilent Cary 100 UV-Vis spectrometer and a Horiba Jobin Yvon Fluoromax-4 Fluorimeter. Fluorescent quantum yield was measured in dichloromethane at room temperature using a Hamamatsu absolute PL quantum yield measurement system. Electrochemical experiments were performed using a Biologic SP-50 potentiostat with a Ag wire reference electrode, Pt wire counter electrode, and glassy carbon working electrode under nitrogen atmosphere in 100 mM solutions of Bu4NPF6 in DCM with ferrocene as a reference. All reagents were obtained commercially unless otherwise noted. Compounds para-benzoquinone mono-methyl ketal, compound A, compound B, PPh3 Pd Gen III, and SPhos Pd Gen 1115 were prepared according to literature procedure.
In this example, the photophysical properties of nanohoop compound embodiments comprising meta-substitution (wherein the meta-substitution refers to the fact that one of the rings of the nanohoop skeleton is connected to other rings of the nanohoop skeleton via bonds that are meta-substituted relative to each other) was evaluated. It was determined that disrupting the conjugation of the nanohoop allows the HOMO→LUMO absorption and “turns on” the fluorescence in the smaller sizes (e.g., 6-membered and 5-membered nanohoops). The absorption and emission data as well as extinction coefficients and quantum yields were collected. […] Two absorption transitions can be seen in for the smaller sizes, but the second transition blue-shifts and overlaps with the absorption at 328 nm for [10]- and [12]mCPP. The extinction coefficient of the higher energy transition is larger than that of the lower energy transition in all cases (Table 10). […] Graphs showing the extinction coefficient determination of [5]mCPP at the absorbance maxima and HOMO→LUMO transition are provided in FIGS. 10A and 10B, respectively. Graphs showing the extinction coefficient determination of [6]mCPP at the absorbance maxima and HOMO→LUMO transition are provided in FIGS. 11A and 11B, respectively. Graphs showing the extinction coefficient determination of [7]mCPP at the absorbance maxima and HOMO→LUMO transition are provided in FIGS. 12A and 12B, respectively. Graphs showing the extinction coefficient determination of [8]mCPP at the absorbance maxima and HOMO→LUMO transition are provided in FIGS. 13A and 13B, respectively. Graphs showing the extinction coefficient determination of [10]mCPP and [12]mCPP at the absorbance maxima are provided in FIGS. 14 and 15, respectively. […]

HeLa cells = assay: Colorimetric CCK-8 viability assay of HeLa cells; type: cell-based; details: [12]CPP 0.25-1 uM, [8]CPP 0.5-2 uM, 5 wt percent Pluronic F108 in DMEM
Experimental: HeLa cells were treated with varying concentrations of [8]CPP and [12]CPP in the presence of 5 wt percent Pluronic F108 in DMEM, and their viability was measured using a colorimetric CCK-8 assay (purchased from Dojindo and performed following the assay instructions). Briefly, the cells were treated with the nanohoop compound and the tetrazolium salt WST-8 at each concentration for 2 hours at 37 degrees Celsius, and the optical density of the cells was subsequently measured at 450 nm. The viability of cells treated with the [12]CPP and [8]CPP compounds is illustrated in FIGS. 1 and 2, respectively.
In this example, HeLa cells were treated with the disulfonated[8]CPP nanohoop Compound 1 at concentrations of 5 uM, 10 uM, 25 uM, 50 uM and 100 uM and their viability was measured using a standard colorimetric CCK-8 assay, as described above for Example 1. The percentage of living cells remaining after exposure to various concentrations of Compound 1 is illustrated in the graph shown in FIG. 3.

CPP ε × Φ (brightness) [2]	H→L Absorbance ([2]; HOMO→LUMO transition)	εAmax × ΦAmax (brightness) [2]	Emission [2]	Max Abs [2]	ΦAmax (fluorescence quantum yield) [2]	εAmax [2]	εH→L [2]	SMILES	fluorescence of para-substituted CPP (in words) [1]	other results
0	–	–	–	–	–	–	–	c1cc2ccc1=c1ccc(cc1)=c1ccc(cc1)=c1ccc(cc1)=c1ccc=2cc1 [[5]CPP, reference compound]	no fluorescence	absorption (extinction coefficient) compared with [5]mCPP ([2]; all-para [5]CPP, HOMO→LUMO transition): 450 M⁻¹ cm⁻¹
0	–	–	–	–	–	–	–	c1cc2ccc1=c1ccc(cc1)=c1ccc(cc1)=c1ccc(cc1)=c1ccc(cc1)=c1ccc=2cc1 [[6]CPP, reference compound]	no fluorescence	–
–	410 nm	1.2 × 10^4	510 nm	328 nm	0.224	5.4 × 10^4 ± 0.3 M^−1cm^−1	9.4 × 10^3 ± 0.5 M^−1cm^−1	O[C@]12C=C[C@](O)(C=C1)c1ccc(cc1)[C@]1(O)C=C[C@@](O)(C=C1)c1ccc(cc1)-c1cccc(c1)[C@@H]1C=CC2=CC1 [[6]mCPP]	–	–
4.8 × 10^2	–	–	–	–	–	–	–	c1cc2ccc1-c1ccc(cc1)-c1ccc(cc1)-c1ccc(cc1)-c1ccc(cc1)-c1ccc(cc1)-c1ccc-2cc1 [[7]CPP, reference compound]	only weak fluorescence	–
–	394 nm	2.3 × 10^4	491 nm	328 nm	0.450	5.1 × 10^4 ± 0.09 M^−1cm^−1	9.9 × 10^3 ± 0.08 M^−1cm^−1	O[C@]12C=C[C@](O)(CC1)c1ccc(cc1)-c1ccc(cc1)[C@]1(O)C=C[C@@H](C=C1)c1ccc(cc1)-c1cccc(c1)-c1ccc2cc1 [[7]mCPP]	–	–
1.0 × 10^4	–	–	–	–	–	–	–	c1cc2ccc1=c1ccc(cc1)=c1ccc(cc1)=c1ccc(cc1)=c1ccc(cc1)=c1ccc(cc1)=c1ccc(cc1)=c1ccc=2cc1 [[8]CPP, reference compound]	–	toxicity to HeLa cells (in words) (HeLa cells): not toxic
–	376 nm	3.7 × 10^4	484 nm	326 nm	0.595	6.2 × 10^4 ± 0.9 M^−1cm^−1	1.4 × 10^4 ± 0.1 M^−1cm^−1	CO[C@]12C=C[C@](O)(C=C1)c1ccc(cc1)-c1cccc(c1)-c1ccc(cc1)[C@]1(O)C=C[C@@](OC)(C=C1)C1C=CC(=CC1)[C@]1(O)C=C[C@@](O)(CC1)[C@H]1C=CC2=CC1 [[8]mCPP]	–	–
8.5 × 10^4	–	–	–	–	–	–	–	c1cc2ccc1-c1ccc(cc1)-c1ccc(cc1)-c1ccc(cc1)-c1ccc(cc1)-c1ccc(cc1)-c1ccc(cc1)-c1ccc(cc1)-c1ccc(cc1)-c1ccc-2cc1 [[10]CPP, reference compound]	–	–
–	–	5.2 × 10^4	456 nm	328 nm	0.726	7.1 × 10^4 ± 0.2 M^−1cm^−1	–	c1cc2cc(c1)-c1ccc(cc1)-c1ccc(cc1)-c1ccc(cc1)-c1ccc(cc1)-c1ccc(cc1)-c1ccc(cc1)-c1ccc(cc1)-c1ccc(cc1)-c1ccc-2cc1 [[10]mCPP]	–	overall brightness versus commercial fluorophores (in words) ([2]; compared with DAPI and Rhodamine 110): brighter than many commercial fluorophores
1.4 × 10^5	–	–	–	–	–	–	–	c1cc2ccc1-c1ccc(cc1)-c1ccc(cc1)-c1ccc(cc1)-c1ccc(cc1)-c1ccc(cc1)-c1ccc(cc1)-c1ccc(cc1)-c1ccc(cc1)-c1ccc(cc1)-c1ccc(cc1)-c1ccc-2cc1 [[12]CPP, reference compound]	–	toxicity to HeLa cells (in words) (HeLa cells): not toxic
